# Data published in patent US10272092B2, “Composition for preventing or treating mucositis comprising NecroX as effective ingredient” (THE CATHOLIC UNIVERSITY OF KOREA INDUSTRY-ACADEMIC …, priority 2014, dated 2019).
# What was measured:
# [1] = tested on: Human tumor cells; experiment: MTS viability of human tumor cells, NecroX-7 with or without 5-FU; format: cell-based; details: 5, 10, 20, 40 μM for 30 minutes; media without 5-FU; after 3 days; FIG. 10
# Method: Human tumor cells were treated with NecroX-7 at each concentration ((5 μM, 10 μM, 20 μM, and 40 μM) for 30 minutes, the media were replaced by media with or without 5-FU, which is a chemotherapeutic agent, the cells were loaded on a 96-well plate and, after 3 days, the viability of the cells was measured by MTS assay.
# [2] = tested on: tumor cells; experiment: MTT assay of irradiated tumor cells; format: cell-based; details: 800 cGy radiation; NecroX-7 according to doses; 3 days incubation; FIG. 5
# Method: (§1) Mucositis is a general side effect caused by radiation or chemotherapy for tumor treatment. Thus, to confirm the efficacy of a mucositis therapeutic agent, an effect thereof on tumor proliferation should be evaluated. Normal cells and tumor cells were irradiated with 800 cGy radiation, treated with NecroX-7 according to doses, and inoculated on a 96-well plate, incubated at 37[…] and 5% CO2 for 3 days, and then cell proliferation was confirmed by MTT assay. After incubation for 3 days, an MTT solution was added thereto and a reaction was allowed to occur therein for 3 hours, and the absorbance thereof was measured at […].
# [3] = tested on: mitochondrial ROS in intestinal epithelial cells (IEC-6); experiment: Mitochondrial ROS by CM-H2ROS staining after radiation; format: cell-based; details: IEC-6 cells after radiation; FIG. 6
# [4] = tested on: tongue and intestinal tissues of anticancer drug-induced mucositis mice; experiment: H&E staining of tongue and intestinal tissues, 5-FU-induced mucositis; format: in vivo
# [5] = tested on: intestinal epithelial cells (IEC-6); experiment: MTS assay of IEC-6 cell proliferation in normal environments; format: cell-based; details: no radiation, 5, 10, 20, 40 μM for 30 minutes, measured after 2 days
# Method: To examine an effect of NecroX-7 on IEC-6 cell proliferation ability in normal environments, IEC-6 cells were treated with NecroX-7 at each concentration (5 μM, 10 μM, 20 μM, and 40 μM) for 30 minutes, the media were replaced and, after 2 days, the viability of the IEC-6 cells was measured by MTS (3-(4,5-dimethylthiazol-2-yl)-5-(3-carboxymethoxyphenyl)-2-(4-sulfophenyl)-2H-tetrazolium) assay.
# [6] = tested on: anticancer drug-induced mucositis mouse model; experiment: Anticancer drug (5-FU)-induced mucositis mouse model: viability, body weight; format: in vivo, C57BL/6(H-2k) mice; details: 50 mg/kg 5-FU i.p. five times; NecroX-7 intravenously five times at 0.3, 3 or 30 mg/kg; compared to group not treated; FIG. 7
# Method: 7 week- to 9 week-old C57BL/6(H-2k) mice were used as an animal model, and injected intraperitoneally with 50 mg/kg of 5-fluorouracil (5-FU) every day for 5 days to induce oral and intestinal mucosal damage, thereby completing the establishment of a mucositis model. Effects of NecroX-7 administered on such a mucositis model were analyzed by comparison in terms of viability, body weight, and intestinal functions.
# To induce oral and intestinal mucositis, the C57BL/6(H-2k) mice were intraperitoneally injected with 50 mg/kg of 5-FU five times. NecroX-7 was administered intravenously five times at a dose of 0.3 mg/kg or 3 mg/kg or 30 mg/kg and the results were compared.
# [7] = tested on: intestinal tissue of radiation-induced mucositis mice; experiment: Cell proliferation (bromodeoxyuridine) by IHC staining of intestinal tissue; format: in vivo; details: 30 mg/kg NecroX-7, unlike a control, FIG. 4
# Method: Cell proliferation (bromodeoxyuridine) was confirmed by IHC staining. Before obtaining mouse tissues, mice were each injected with […] of a BrDU labeling reagent (5-bromo-2′-deoxyuridine and 5-fluoro-2′-deoxyuridine) and intestinal tissue was extracted within 2 hours to prepare paraffin blocks. 4 μm continuous sections were obtained from paraffin-embedded tissue, treated with xylene three times to remove paraffin, and then rinsed stepwise in 95%, 90% and 70% ethanol. After removing endogenous peroxidase from 0.3% hydrogen peroxide, the sections were treated with goat serum for 30 minutes. A primary antibody was diluted in PBS containing 3% BSA according to the manufacturer's instructions and then maintained for 1 hour to induce a reaction therebetween. […] The cells were maintained in 3 μg/ml HRP streptoavidin for 30 minutes, developed color with DAB and hydrogen peroxide, and then were subjected to contrast staining with Mayer's hematoxylin or 1% methyl green.
# [8] = tested on: intestinal epithelial cells (IEC-6); experiment: MTS assay of IEC-6 cells after irradiation; format: cell-based; details: 20 μM and 40 μM NecroX-7 for 30 minutes; 2 days after radiation irradiation; FIG. 6
# Method: To investigate an effect of NecroX-7 on cell proliferation ability after irradiation, the IEC-6 cells were treated with NecroX-7, for 30 minutes, according to concentration, the media were replaced, and then MTS assay was performed thereon 2 days after radiation irradiation.
# [9] = tested on: liver injury caused by carbon tetrachloride; details: mouse model; reported, Park et al. 2013; cited from earlier work
# [10] = tested on: radiation-induced mucositis mouse model; experiment: Radiation-induced mucositis mouse model: viability, body weight, intestinal functions; format: in vivo, C57BL/6(H-2k) mice; details: 1100 cGy radiation, compared to group not treated
# Method: NecroX-7 ((tetrahydropyran-4-yl)-[2-phenyl-5-(1,1-dioxo-thiomorpholine-4-yl)methyl-1H-indole-7-yl]amine) was obtained from LG Life Sciences, Ltd. 7 week- to 9 week-old C57BL/6(H-2k) mice were used as an animal model, and irradiated with 1,100 cGy whole-body radiation to induce damage to the intestinal mucosa, thereby completing the establishment of a mucositis model. Effects of NecroX-7 administered on such a mucositis model were analyzed by comparison in terms of viability, body weight, and intestinal functions.
# (A) C57BL/6(H-2k) mice were irradiated with strong radiation 1100 cGy (radiation source: X-ray Mevatron MXE-2) at a dose rate of 1 Gy/min to induce mucositis. NecroX-7 was administered five times at a dose of 0.3 mg/kg or 3 mg/kg or 30 mg/kg and the results were compared.
# Induction of intestinal mucositis by radiation causes side effects such as intestinal hemorrhaging and fecal incontinence. Thus, in the present experiment, a mucositis model was established by irradiating high-dose radiation of 1100 cGy, and NecroX-7 was treated total five times and the NecroX-7 treated group was compared to a group not treated with NecroX-7. A protective effect of NecroX-7 with respect to radiation-induced intestinal mucositis was examined.
# [11] = tested on: necrocytosis caused by oxidative stress and acetaminophen; details: reported, Park et al. 2013; cited from earlier work
# [12] = tested on: intestinal tissue of radiation-induced mucositis mice; experiment: H&E staining of intestinal tissue, radiation-induced mucositis; format: in vivo; details: 30 mg/kg NecroX-7, FIG. 3
# [13] = tested on: liver injury due to ischemic reperfusion; details: reported, Park et al. 2013; cited from earlier work
# [14] = tested on: normal cells; experiment: MTT assay of irradiated normal cells; format: cell-based; details: 800 cGy radiation; NecroX-7 according to doses; 3 days incubation; FIG. 5
# Method: as §1
# [15] = NecroX-7 five times at 0.3, 3 or 30 mg/kg, FIG. 1
smiles,measurement,setting,value
"O=S1(=O)CCN(Cc2cc(NC3CCOCC3)c3[nH]c(-c4ccccc4)cc3c2)CC1 [NecroX-7, (tetrahydropyran-4-yl)-[2-phenyl-5-(1,1-dioxo-thiomorpholine-4-yl)methyl-1H-indole-7-yl]amine]","viability of human tumor cells (MTS), NecroX-7 alone",[1],anticancer effect in a concentration-dependent manner
same,proliferation of tumor cells (MTT),[2],suppressed or decreased in most cancer cell lines
same,mitochondrial ROS (CM-H2ROS staining),[3],significantly suppressed mitochondrial ROS increased by radiation
same,"H&E histology of tongue and oral mucosa (epidermal atrophy, infiltration of inflammatory and necrotic cells)","[4]; 30 mg/kg of NecroX-7, FIG. 8",aspects similar to normal tissues
same,H&E histology of intestinal tissue (villi and mucosal destruction),"[4]; NecroX-7-treated group, FIG. 9",aspects similar to normal tongue and intestinal tissues
same,effect on IEC-6 cell proliferation (MTS viability),[5],nearly no effect on cell proliferation
same,body weight loss,[6],suppressed body weight loss
same,viability,[6],increased viability
same,cell proliferation (bromodeoxyuridine) in intestinal tissue,[7],vigorous cell proliferation was observed
same,number of live IEC-6 cells (MTS),[8],significantly increased
same,prevention of liver injury caused by carbon tetrachloride,[9],effect of preventing liver injury caused by carbon tetrachloride in a mouse model
same,body weight loss,[10]; [15],inhibited body weight loss
same,viability,[10]; [15],increased viability
same,"intestinal function protection (length of the intestines, stool production)","[10]; NecroX-7 total five times, FIG. 2","protected, similar to the intestines of a normal group"
same,protection against necrocytosis caused by oxidative stress and acetaminophen,[11],protective effect against necrocytosis caused by oxidative stress and acetaminophen
same,H&E histology of intestinal tissue (villi and mucosal destruction),[12],aspects similar to normal intestinal tissue
same,inhibition of liver injury due to ischemic reperfusion,[13],effectively inhibits liver injury due to ischemic reperfusion
same,radiation-induced cell death in normal cells (MTT),[14],radiation-induced cell death was prevented
